Structures are written as SMILES.

What all share (details): Compound concentration 1000.0 nM
Assay [1] concerns the target Dual specificity protein kinase CLK2 (Homo sapiens) (UniProt P49760).
The target of assay [2] is Casein kinase II subunit alpha' (Homo sapiens) (UniProt P19784).
Assay [3] concerns the target Dual specificity tyrosine-phosphorylation-regulated kinase 1B (Homo sapiens) (UniProt Q9Y463).
Assay [4] addresses Ephrin type-A receptor 4 (Homo sapiens) (UniProt P54764).
For assay [5], the target named is Mitogen-activated protein kinase 7 (Homo sapiens) (UniProt Q13164).
The target in assay [6] is Insulin receptor-related protein (Homo sapiens) (UniProt P14616).
Assay [7] has as its target LIM domain kinase 1 (Homo sapiens) (UniProt P53667).
For assay [8], the target named is Mitogen-activated protein kinase kinase kinase 11 (Homo sapiens) (UniProt Q16584).
Assay [9] has as its target T1, Mitogen-activated protein kinase 13 (Homo sapiens) (UniProt O15264).
T1 sequence (whole entry): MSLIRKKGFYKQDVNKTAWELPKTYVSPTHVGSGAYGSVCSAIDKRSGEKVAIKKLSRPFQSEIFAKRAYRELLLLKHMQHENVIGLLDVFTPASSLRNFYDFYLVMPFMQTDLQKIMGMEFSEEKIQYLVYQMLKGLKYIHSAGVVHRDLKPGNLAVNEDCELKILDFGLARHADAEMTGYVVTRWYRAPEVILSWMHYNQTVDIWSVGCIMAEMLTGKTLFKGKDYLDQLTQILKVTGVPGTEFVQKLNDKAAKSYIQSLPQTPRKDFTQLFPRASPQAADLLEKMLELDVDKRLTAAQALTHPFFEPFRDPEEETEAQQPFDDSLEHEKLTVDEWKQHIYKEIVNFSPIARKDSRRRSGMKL

In assay [10] the target is T2, Mitogen-activated protein kinase 12 (Homo sapiens) (UniProt P53778).
T2 sequence (whole entry): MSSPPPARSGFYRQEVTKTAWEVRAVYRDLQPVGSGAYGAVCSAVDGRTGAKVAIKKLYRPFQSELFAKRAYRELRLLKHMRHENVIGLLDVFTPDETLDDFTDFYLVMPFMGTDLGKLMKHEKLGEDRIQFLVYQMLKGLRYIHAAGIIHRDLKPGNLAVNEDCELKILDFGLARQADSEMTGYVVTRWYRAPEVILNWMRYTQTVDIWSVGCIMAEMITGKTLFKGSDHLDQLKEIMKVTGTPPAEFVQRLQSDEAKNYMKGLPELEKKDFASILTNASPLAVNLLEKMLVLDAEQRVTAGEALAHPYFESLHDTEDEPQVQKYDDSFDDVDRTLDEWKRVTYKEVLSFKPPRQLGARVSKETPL

The target of assay [11] is Calcium-dependent protein kinase 1 (Plasmodium falciparum) (UniProt P62344).
For assay [12], the target named is Cyclin-dependent kinase 2 homolog (Plasmodium falciparum (isolate 3D7)) (UniProt P61075).
Assay [13] addresses Serine/threonine-protein kinase N2 (Homo sapiens) (UniProt Q16513).
The target of assay [14] is Serine/threonine-protein kinase PLK1 (Homo sapiens) (UniProt P53350).
The target in assay [15] is T3, Receptor-interacting serine/threonine-protein kinase 1 (Homo sapiens) (UniProt Q13546).
T3 sequence (whole entry): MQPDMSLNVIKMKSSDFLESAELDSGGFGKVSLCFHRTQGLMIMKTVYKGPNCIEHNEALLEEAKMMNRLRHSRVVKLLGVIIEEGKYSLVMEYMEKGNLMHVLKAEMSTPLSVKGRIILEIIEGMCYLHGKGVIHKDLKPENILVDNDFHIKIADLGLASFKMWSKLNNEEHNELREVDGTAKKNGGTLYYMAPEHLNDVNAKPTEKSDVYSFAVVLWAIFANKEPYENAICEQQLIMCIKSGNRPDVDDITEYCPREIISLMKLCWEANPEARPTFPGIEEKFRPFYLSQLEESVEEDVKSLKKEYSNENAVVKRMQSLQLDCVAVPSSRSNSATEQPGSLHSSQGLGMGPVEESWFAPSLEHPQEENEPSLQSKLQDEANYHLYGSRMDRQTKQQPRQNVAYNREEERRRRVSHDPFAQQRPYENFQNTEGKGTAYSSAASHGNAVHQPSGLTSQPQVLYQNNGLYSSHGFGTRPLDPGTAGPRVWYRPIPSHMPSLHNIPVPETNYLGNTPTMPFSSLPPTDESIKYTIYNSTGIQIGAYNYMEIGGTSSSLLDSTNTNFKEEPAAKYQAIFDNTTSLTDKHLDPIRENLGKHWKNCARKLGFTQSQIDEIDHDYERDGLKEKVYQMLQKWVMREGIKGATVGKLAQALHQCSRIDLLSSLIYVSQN

Assay [16] concerns the target Ribosomal protein S6 kinase alpha-1 (Homo sapiens) (UniProt Q15418).
Assay [17] concerns the target Ribosomal protein S6 kinase alpha-6 (Homo sapiens) (UniProt Q9UK32).
Assay [18] concerns the target T4, Serine/threonine-protein kinase Sgk1 (Homo sapiens) (UniProt O00141).
T4 sequence (whole entry): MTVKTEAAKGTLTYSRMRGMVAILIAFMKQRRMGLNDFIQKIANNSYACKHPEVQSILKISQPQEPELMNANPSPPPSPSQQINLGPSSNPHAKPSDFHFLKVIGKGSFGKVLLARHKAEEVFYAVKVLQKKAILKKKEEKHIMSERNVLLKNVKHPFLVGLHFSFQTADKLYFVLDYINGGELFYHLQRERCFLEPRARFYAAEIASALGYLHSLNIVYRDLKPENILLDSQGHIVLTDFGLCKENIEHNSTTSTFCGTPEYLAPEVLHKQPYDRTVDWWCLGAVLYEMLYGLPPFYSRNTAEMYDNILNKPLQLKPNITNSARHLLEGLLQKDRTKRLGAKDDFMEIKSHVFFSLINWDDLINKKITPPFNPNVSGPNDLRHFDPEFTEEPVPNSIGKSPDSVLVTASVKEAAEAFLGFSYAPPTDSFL

Sequence of Mitogen-activated protein kinase kinase kinase 11 (Homo sapiens) (Q16584 whole entry, looked up): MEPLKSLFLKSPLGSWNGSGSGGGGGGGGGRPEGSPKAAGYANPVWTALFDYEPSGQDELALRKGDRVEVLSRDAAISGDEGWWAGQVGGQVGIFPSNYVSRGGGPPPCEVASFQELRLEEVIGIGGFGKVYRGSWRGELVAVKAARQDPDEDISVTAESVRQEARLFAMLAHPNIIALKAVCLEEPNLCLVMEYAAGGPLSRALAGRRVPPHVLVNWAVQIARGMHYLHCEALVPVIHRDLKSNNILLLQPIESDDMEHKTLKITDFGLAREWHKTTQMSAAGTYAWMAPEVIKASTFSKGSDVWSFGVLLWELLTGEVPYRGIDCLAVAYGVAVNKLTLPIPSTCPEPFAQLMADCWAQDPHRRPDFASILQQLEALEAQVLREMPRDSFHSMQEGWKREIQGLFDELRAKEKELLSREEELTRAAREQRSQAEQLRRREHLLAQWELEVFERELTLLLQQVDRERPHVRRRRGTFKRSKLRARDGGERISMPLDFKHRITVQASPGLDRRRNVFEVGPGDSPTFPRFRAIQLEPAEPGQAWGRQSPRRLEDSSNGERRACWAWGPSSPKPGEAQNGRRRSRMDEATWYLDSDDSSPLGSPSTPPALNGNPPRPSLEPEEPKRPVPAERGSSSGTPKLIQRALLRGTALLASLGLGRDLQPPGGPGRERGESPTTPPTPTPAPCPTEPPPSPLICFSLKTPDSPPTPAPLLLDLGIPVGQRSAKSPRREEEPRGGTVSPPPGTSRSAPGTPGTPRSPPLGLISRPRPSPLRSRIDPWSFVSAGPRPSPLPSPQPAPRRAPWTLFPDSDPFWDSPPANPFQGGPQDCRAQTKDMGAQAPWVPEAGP
Sequence of Mitogen-activated protein kinase 7 (Homo sapiens) (Q13164 2-816 limits assumed): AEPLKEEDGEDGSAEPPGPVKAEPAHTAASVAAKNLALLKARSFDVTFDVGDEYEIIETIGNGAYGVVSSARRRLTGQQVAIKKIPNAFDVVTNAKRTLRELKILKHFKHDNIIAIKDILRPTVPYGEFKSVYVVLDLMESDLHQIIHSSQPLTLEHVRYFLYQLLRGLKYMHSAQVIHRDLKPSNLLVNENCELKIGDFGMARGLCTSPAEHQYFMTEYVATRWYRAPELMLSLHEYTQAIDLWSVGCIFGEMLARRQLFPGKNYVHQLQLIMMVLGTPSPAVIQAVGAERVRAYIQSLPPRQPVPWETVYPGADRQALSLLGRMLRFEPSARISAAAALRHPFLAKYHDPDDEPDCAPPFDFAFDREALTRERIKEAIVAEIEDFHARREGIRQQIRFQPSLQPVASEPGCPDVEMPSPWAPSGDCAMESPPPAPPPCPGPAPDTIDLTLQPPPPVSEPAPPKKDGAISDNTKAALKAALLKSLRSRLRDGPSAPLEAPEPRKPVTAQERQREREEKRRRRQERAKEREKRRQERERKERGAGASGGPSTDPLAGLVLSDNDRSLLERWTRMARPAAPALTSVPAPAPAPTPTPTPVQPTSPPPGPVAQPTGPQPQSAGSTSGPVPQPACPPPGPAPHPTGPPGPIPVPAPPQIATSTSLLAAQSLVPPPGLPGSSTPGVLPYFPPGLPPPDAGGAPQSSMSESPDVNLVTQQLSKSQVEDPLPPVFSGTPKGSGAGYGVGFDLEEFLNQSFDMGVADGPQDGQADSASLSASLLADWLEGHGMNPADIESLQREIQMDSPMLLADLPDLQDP
Sequence of Serine/threonine-protein kinase PLK1 (Homo sapiens) (P53350 whole entry): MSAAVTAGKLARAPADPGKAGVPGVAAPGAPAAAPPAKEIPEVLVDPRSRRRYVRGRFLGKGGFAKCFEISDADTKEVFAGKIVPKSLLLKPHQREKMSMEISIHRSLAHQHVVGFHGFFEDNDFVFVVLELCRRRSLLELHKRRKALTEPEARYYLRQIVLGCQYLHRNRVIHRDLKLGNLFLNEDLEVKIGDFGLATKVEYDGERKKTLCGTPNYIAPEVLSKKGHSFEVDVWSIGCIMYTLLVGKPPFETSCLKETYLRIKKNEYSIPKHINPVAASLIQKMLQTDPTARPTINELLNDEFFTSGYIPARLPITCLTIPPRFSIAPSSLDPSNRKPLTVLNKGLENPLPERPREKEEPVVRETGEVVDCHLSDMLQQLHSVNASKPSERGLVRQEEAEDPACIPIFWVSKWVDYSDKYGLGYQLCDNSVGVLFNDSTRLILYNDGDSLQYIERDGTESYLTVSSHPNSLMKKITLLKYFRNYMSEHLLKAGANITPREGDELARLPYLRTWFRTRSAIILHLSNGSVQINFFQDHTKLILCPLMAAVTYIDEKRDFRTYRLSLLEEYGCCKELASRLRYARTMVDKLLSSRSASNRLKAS
Sequence of Ephrin type-A receptor 4 (Homo sapiens) (P54764 whole entry): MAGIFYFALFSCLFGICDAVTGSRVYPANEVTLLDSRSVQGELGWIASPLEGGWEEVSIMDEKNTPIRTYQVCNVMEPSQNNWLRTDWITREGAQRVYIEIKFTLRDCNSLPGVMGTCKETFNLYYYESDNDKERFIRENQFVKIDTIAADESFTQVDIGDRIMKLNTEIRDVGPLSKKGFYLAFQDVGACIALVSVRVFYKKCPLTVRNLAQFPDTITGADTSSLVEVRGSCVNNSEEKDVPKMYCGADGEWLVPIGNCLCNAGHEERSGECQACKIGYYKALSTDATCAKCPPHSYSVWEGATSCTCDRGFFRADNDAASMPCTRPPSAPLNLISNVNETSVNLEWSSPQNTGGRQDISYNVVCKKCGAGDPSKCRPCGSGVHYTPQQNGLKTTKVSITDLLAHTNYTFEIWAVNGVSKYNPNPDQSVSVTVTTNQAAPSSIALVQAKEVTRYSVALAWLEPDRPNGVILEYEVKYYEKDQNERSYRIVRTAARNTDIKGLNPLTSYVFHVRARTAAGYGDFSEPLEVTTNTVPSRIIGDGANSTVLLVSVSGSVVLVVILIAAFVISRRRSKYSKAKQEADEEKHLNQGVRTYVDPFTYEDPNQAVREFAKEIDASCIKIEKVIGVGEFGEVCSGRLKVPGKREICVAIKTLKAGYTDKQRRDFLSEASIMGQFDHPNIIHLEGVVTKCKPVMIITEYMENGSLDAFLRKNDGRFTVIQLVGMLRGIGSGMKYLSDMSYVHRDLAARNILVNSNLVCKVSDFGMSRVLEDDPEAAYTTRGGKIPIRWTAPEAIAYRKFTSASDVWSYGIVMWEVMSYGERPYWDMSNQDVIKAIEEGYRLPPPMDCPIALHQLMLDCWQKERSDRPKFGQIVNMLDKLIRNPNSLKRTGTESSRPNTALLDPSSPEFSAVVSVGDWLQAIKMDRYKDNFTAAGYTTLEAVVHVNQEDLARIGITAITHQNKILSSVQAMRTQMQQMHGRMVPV
Sequence of Dual specificity tyrosine-phosphorylation-regulated kinase 1B (Homo sapiens) (Q9Y463 whole entry, looked up): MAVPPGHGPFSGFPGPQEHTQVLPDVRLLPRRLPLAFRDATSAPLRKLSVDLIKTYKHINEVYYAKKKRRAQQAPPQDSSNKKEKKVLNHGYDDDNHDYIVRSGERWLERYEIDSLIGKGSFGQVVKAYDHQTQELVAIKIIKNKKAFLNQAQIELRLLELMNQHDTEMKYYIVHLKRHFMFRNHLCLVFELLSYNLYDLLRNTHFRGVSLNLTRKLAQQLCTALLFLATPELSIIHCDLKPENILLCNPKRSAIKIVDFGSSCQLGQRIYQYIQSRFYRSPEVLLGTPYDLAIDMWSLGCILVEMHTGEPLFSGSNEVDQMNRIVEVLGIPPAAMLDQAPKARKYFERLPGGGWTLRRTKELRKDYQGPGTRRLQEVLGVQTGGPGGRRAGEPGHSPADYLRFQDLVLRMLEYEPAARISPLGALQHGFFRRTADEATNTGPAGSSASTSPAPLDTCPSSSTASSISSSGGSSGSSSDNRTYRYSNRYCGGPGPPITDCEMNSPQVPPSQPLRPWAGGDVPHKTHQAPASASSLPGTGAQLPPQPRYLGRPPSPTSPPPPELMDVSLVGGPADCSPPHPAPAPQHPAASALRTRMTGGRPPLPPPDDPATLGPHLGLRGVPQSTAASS
Sequence of Calcium-dependent protein kinase 1 (Plasmodium falciparum) (P62344 2-524 limits assumed): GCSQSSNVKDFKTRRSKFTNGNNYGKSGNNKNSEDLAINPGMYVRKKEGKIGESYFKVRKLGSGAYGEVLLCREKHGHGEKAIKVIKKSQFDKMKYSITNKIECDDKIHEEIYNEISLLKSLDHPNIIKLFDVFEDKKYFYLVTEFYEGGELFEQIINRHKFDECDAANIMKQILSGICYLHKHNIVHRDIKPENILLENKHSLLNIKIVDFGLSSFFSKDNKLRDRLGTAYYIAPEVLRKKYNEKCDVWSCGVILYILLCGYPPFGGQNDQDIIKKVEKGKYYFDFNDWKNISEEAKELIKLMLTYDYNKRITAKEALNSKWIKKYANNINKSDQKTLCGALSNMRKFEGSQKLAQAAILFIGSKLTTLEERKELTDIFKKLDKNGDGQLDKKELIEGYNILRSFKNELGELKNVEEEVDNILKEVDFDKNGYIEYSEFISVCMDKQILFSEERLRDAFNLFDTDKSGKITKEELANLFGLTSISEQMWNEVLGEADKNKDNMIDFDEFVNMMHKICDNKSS
Sequence of Cyclin-dependent kinase 2 homolog (Plasmodium falciparum (isolate 3D7)) (P61075 whole entry): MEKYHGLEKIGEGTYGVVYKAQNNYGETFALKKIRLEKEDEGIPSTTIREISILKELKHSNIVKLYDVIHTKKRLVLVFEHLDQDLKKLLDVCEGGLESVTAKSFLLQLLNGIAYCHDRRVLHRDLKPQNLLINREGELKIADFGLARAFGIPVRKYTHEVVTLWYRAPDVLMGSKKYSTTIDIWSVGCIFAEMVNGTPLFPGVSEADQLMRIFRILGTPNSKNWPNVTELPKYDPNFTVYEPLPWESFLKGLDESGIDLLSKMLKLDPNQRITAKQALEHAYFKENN
Sequence of Casein kinase II subunit alpha' (Homo sapiens) (P19784 whole entry, looked up): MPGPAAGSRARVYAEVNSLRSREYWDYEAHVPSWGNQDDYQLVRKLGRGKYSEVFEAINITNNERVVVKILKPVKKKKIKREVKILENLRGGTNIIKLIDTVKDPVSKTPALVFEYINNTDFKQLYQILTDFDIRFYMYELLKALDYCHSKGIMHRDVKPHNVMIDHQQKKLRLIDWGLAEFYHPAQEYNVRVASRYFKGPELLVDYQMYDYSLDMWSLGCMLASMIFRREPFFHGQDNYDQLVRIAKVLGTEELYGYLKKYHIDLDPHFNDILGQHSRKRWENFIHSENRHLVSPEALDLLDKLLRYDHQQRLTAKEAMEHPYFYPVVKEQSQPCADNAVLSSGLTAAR

On to `Cc1nc(C2CCN(C(=O)c3ccc(OC(F)(F)F)cc3N)CC2)c2ncc(N3CCN(C)CC3)cc2n1` [BAY-693], for which the residual activity in assay [1] is 100%; in assay [2], 85%; in [3], 61%; in assay [4], 100%; in [5], 22%; in [6] it was 100%. The residual activity is 93% in [7]; 100% in [8]; 100% in [9]; 100% in assay [10]; 100% in assay [11]; 100% in assay [12]. The residual activity is 100% in assay [13]; 79% in assay [14]; 98% in [15]; 100% in assay [16]; 100% in assay [17]; 100% in [18].
Turning to `CN1CCN(c2cnc3c(C4CCN(C(=O)c5ccc(OC(F)(F)F)cc5N)CC4)ncnc3c2)CC1` [BAY-885], the residual activity in [1] was 100%; in assay [2], 93%; in assay [3] it was 54%; in assay [4], 100%; in [5], 0.1%; in assay [6] it was 100%. Also, the residual activity in assay [7] was 100%; in [8], 100%; in assay [9], 100%; in assay [10], 83%; in assay [11], 100%; in assay [12], 100%. For the same molecule, the residual activity in [13] is 100%; in assay [14] it was 93%; in assay [15], 100%; in assay [16], 100%; in assay [17] it was 100%; in [18] it was 100%.

These data come from ChEMBL document CHEMBL4507268 (2021).
